Results: ChEMBL document CHEMBL3612051, “Carbonic anhydrase inhibitors: Design, synthesis and structural characterization of new heteroaryl-N-carbonylbenzenesulfonamides targeting druggable human carbonic anhydrase isoforms” (Eur J Med Chem, 2015)

Assays:
Carbonic anhydrase 9 = Carbonic anhydrase 9 (Homo sapiens, UniProt Q16790); experiment: Inhibition of human recombinant full length carbonic anhydrase 9 preincubated for 15 mins by stopped-flow CO2 hydration assay
Carbonic anhydrase 7 = Carbonic anhydrase 7 (Homo sapiens, UniProt P43166); experiment: Inhibition of human recombinant full length carbonic anhydrase 7 preincubated for 15 mins by stopped-flow CO2 hydration assay
Carbonic anhydrase 7, sequence (P43166 whole entry): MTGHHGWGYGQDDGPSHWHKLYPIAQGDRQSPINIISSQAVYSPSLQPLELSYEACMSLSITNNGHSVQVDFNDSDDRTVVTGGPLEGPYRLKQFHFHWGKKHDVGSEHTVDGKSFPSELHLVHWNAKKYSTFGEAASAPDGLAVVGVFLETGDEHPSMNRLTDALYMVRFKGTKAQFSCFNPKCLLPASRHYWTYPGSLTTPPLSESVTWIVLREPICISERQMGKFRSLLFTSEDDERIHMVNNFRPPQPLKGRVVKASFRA

Row | Ki (Carbonic anhydrase 9) [nM] | IC50 (Carbonic anhydrase 7) [nM] | Compound
1 | 27 |  | COc1ccc2c(c1)CCN(C(=O)c1ccc(S(N)(=O)=O)cc1)C2
2 | 28 |  | NS(=O)(=O)c1ccc(C(=O)N2CCc3cc(O)ccc3C2)cc1
3 | 9.4 |  | NS(=O)(=O)c1ccc(C(=O)N2CCCc3ccccc32)cc1
4 | 6.5 | > 50000 | COc1ccc2c(c1)CCCN2C(=O)c1ccc(S(N)(=O)=O)cc1
5 | 42 |  | NS(=O)(=O)c1ccc(C(=O)N2CCCc3cc(O)ccc32)cc1
6 | 7.5 |  | NS(=O)(=O)c1ccc(C(=O)N2CCc3ccccc3C2)cc1

Row | Compound | Ki (Carbonic anhydrase 9) [nM] | IC50 (Carbonic anhydrase 7) [nM]
7 | NS(=O)(=O)c1ccc(C(=O)N2CCc3cc(O)c(O)cc3C2)cc1 | 5.01 | 
8 | COc1cc2c(cc1OC)CN(C(=O)c1ccc(S(N)(=O)=O)cc1)CC2 | 6.1 | 
